In patent US20110097745A1, “Method For Detecting Microbes” (priority 2007, published 2011):
Converted amounts (≈) assume the structure as drawn.

Assays:
S. aureus [1] = assay: Gram differentiation with CTAB, tester bacteria luminescence; type: cell-based; conditions: +CTAB (3 ppm), 2 hrs 37 C, read after 60 min
Procedure: (§1) Gram-positive bacteria are more sensitive than Gram-negative bacteria to low concentrations of the cationic detergent CTAB. Overnight grown cultures of different strains of infecting bacteria were washed and suspended in saline. About 10^5 cells/well were aliquoted in 0.1 mL Medium 1 (Davis, 0.1% glucose, 25 ppm YE) in microtiter plates with or without 3 ppm of CTAB. After 2 hrs at 37 degrees Centigrade/Celsius?, 0.15 mL of Medium 2 (+10 ng/mL autoinducer) were added to each well, together with 10^6 cells/mL lux-cells. Luminescence was recorded after 60 min.

P. aeroginosa [2] = assay: as above; type: cell-based; conditions: +CTAB (3 ppm), 2 hrs 37 C, read after 60 min
Procedure: as §1

Streptococcus sp. = assay: as above; type: cell-based; conditions: +CTAB (3 ppm), 2 hrs 37 C, read after 60 min
Procedure: as §1

E. coli (W4100) = assay: as above; type: cell-based; conditions: +CTAB (3 ppm), 2 hrs 37 C, read after 60 min
Procedure: as §1

S. typhi (772) = assay: as above; type: cell-based; conditions: +CTAB (3 ppm), 2 hrs 37 C, read after 60 min
Procedure: as §1

[3] = tested on: infecting bacteria of urine samples; assay: antibiotics disc inhibition zone, urine samples (standard analysis); type: cell-based
Procedure: A standard analysis (urine culture colony count) was performed to evaluate bacterial load (Table 5a) and antibiotic susceptibility (Table 5b).

S. aureus [4] = assay: BLT (bioluminescence test) MIC determination
[5] = tested on: infecting bacteria of urine samples; assay: BLT antibiotic susceptibility of urine samples; type: cell-based; design: BLT (luminescence): unit not given here; conditions: for BLT (luminescence): 3 hrs 37 C, concentrations given in Table 5; on antibiotic susceptibility of urine samples: key: R = resistant; S = susceptible
Procedure: Six fresh urine samples were obtained from a local clinic and examined for bacteriuria (>10^5 cells/mL urine) and the antibiotic susceptibility of the infecting bacteriuria. A tube containing a an antibiotic mixture that would eliminate all infecting bacteria but not effect the lux cells (Ampicillin, Kanamycin, Tetracyclin, and Chloramphenicol) served as a control.
Each urine sample was diluted in Medium 1 to yield a final concentration of 3%. 0.1 mL of the diluted samples were then incubated for 3 hrs. at 37 degrees Celsius in a microtitre plate, with or without an antimicrobial substance at the concentrations given in Table 5).
An equal volume of Medium 2 containing 10 ng/ml autoinducer and supplemented with 10^6 of the lux cells was then added to each well. The microtiter plate was then incubated at 28 degrees/Celsius and the luminescence was measured using a plate reader luminometer.
Luminescence was measured in the absence of antibiotics, in the presence of a mixture of antibiotics and in the presence of a single antibiotic from the mixture.
When the ratio of the luminescence measured in the presence of the single antibiotic to that measured in the presence of the antibiotic mix exceeds a second predetermined constant (e.g. 3) then the infecting bacteria are […] to the antibiotic.

S. typhi = assay: microbe, parasite or virus in culture; type: cell-based
E. coli (W4110) = assay: overnight disk diffusion test; type: cell-based; conditions: disk 30 ppm, 16 hrs 37 C
Procedure: (§2) Infecting bacteria (10^6 cells/ml from overnight grown cultures) were spread on LA plates on which 15 mm disks, saturated with various antibiotics, had been placed. After incubating the plates at 37 degrees Celsius for 16 hrs the zone of inhibition was determined for each strain. (Abbreviations used in FIG. 1a and Table 1a: CAP—Chloramphenicol; KAN—Kanamycin; AMP—Ampicillin; CEP—Cephamezin GEN—Gentamycin).

S. typhimirium (772) = assay: overnight disk diffusion test; type: cell-based; conditions: disk 30 ppm, 16 hrs 37 C
Procedure: as §2

P. aeroginosa [6] = assay: overnight disk diffusion test; type: cell-based; conditions: disk 30 ppm, 16 hrs 37 C
Procedure: as §2

CCCCCCCCCCCCCCCC[N+](C)(C)C.[Br-] [CTAB, Cetyltrimethylammonium bromide]
luminescence of tester bacteria (S. aureus [1]): 80,405 LU | luminescence of tester bacteria (P. aeroginosa [2]): 111 LU | luminescence of tester bacteria (Streptococcus sp.): 10,154 LU | luminescence of tester bacteria (E. coli (W4100)): 52 LU | luminescence of tester bacteria (S. typhi (772)): 64 LU

O=C(N[C@H](CO)[C@H](O)c1ccc([N+](=O)[O-])cc1)C(Cl)Cl [Chloramphenicol]
Antibiotics disc inhibition zone ([3]; urine sample 1, 30 ppm): 5 mm | Antibiotics disc inhibition zone ([3]; urine sample 2, 30 ppm): 4 mm | Antibiotics disc inhibition zone ([3]; urine sample 3, 30 ppm): 7 mm | Antibiotics disc inhibition zone ([3]; urine sample 4, 30 ppm): 5 mm | Antibiotics disc inhibition zone ([3]; urine sample 6, 30 ppm): 6 mm | LU, fold increase over control (no antibiotics added) (S. aureus [4]; 0.781 ppm): 0.8 | LU, fold increase over control (no antibiotics added) (S. aureus [4]; 1.562 ppm): 1.3 | LU, fold increase over control (no antibiotics added) (S. aureus [4]; 3.125 ppm): 2.8 | LU, fold increase over control (no antibiotics added) (S. aureus [4]; 6.25 ppm): 5.2 | LU, fold increase over control (no antibiotics added) (S. aureus [4]; 12.5 ppm): 7.2 | LU, fold increase over control (no antibiotics added) (S. aureus [4]; 25 ppm): 11.5 | LU, fold increase over control (no antibiotics added) (S. aureus [4]; 50 ppm): 17.6 | LU, fold increase over control (no antibiotics added) (S. aureus [4]; 100 ppm): 70.1 | MIC (S. aureus [4]; Staphylococcus aureus): ~1.5 µg/mL (≈ 4.64 µM) | antibiotic susceptibility of urine samples ([5]; urine sample 1): S | BLT (luminescence) ([5]; urine sample 1, 3% urine): 62 | antibiotic susceptibility of urine samples ([5]; urine sample 2): S | BLT (luminescence) ([5]; urine sample 2, 3% urine): 46 | antibiotic susceptibility of urine samples ([5]; urine sample 3): S | BLT (luminescence) ([5]; urine sample 3, 3% urine): 36 | antibiotic susceptibility of urine samples ([5]; urine sample 4): S | BLT (luminescence) ([5]; urine sample 4, 3% urine): 31.2 | antibiotic susceptibility of urine samples ([5]; urine sample 5): S | BLT (luminescence) ([5]; urine sample 5, 3% urine): 13 | antibiotic susceptibility of urine samples ([5]; urine sample 6): S | BLT (luminescence) ([5]; urine sample 6, 3% urine): 41 | LU, fold increase over control (no antibiotics added) (S. typhi; 0.19 ppm): 0.7 | LU, fold increase over control (no antibiotics added) (S. typhi; 0.39 ppm): 0.72 | LU, fold increase over control (no antibiotics added) (S. typhi; 0.78 ppm): 0.63 | LU, fold increase over control (no antibiotics added) (S. typhi; 1.5 ppm): 0.74 | LU, fold increase over control (no antibiotics added) (S. typhi; 3.1 ppm): 1.9 | LU, fold increase over control (no antibiotics added) (S. typhi; 6.25 ppm): 3.61 | LU, fold increase over control (no antibiotics added) (S. typhi; 12.5 ppm): 5.42 | LU, fold increase over control (no antibiotics added) (S. typhi; 25 ppm): 6.84 | LU, fold increase over control (no antibiotics added) (S. typhi; 50 ppm): 5.84 | MIC (S. typhi; Salmonella enterica, TYPHI, lowest concentration giving two-fold increase of tester luminescence above control): ~3 µg/mL (≈ 9.28 µM) | zone of inhibition (E. coli (W4110)): 25 mm | zone of inhibition (S. typhimirium (772)): 30 mm | zone of inhibition (P. aeroginosa [6]): 15 mm
